Data set [1] is described as follows: Aqueous solubility of the compound. The data set is classed as physicochemical.
Data set [2] has as its target Heat shock protein HSP 90-alpha (Homo sapiens, UniProt P07900).
Description: Inhibition of Hsp90alpha after 3 hrs by fluorescence polarization assay
A short description of another data set: in vitro. The following applies: rat, liver microsomes.
In another data set the test system is HCT-116. The data set is described as follows: Antiproliferative activity against human HCT116 cells measured on day 4 by Cell titer-glo assay. The data set is classed as functional, cell-based.

Results on 18 compounds are retold here after ChEMBL document CHEMBL1759983, “Design and SAR of macrocyclic Hsp90 inhibitors with increased metabolic stability and potent cell-proliferation activity” (Bioorg Med Chem Lett, 2011).

In brackets after ≈: the same amount, converted by molar mass. Where only a bound is given, the exact number is not on record here.

For `Cc1c2c(n3c1CCNCCNc1cc-3ccc1C(N)=O)CC(C)(C)CC2=O`, the solubility in data set [1] is over 100 µg/mL. In data set [2], this compound displayed an IC50 of 12400 nM. Moreover, the half-life in “in vitro” amounted to 15 min.

In the data set with HCT-116 (Homo sapiens, HCT-116, 96 h), `CC(=O)N1CCc2c(C)c3c(n2-c2ccc(C(N)=O)c(c2)N[C@@H](C)CC1)CC(C)(C)CC3=O` gave an EC50 of 150 nM. This compound also came in with a solubility in data set [1] of 19 µg/mL (≈ 42.2 µM). Besides, in data set [2], the IC50 stood at 110 nM. In “in vitro”, this compound showed a half-life of 9 min.

Turning to `Cc1c2c(n3c1CC[C@H](C)N[C@H](C)CNc1cc-3ccc1C(N)=O)CC(C)(C)CC2=O`, the EC50 in the data set with HCT-116 (Homo sapiens, HCT-116, 96 h) is 360 nM. Further, the solubility in data set [1] worked out at 58 µg/mL (≈ 137 µM). In data set [2], this compound registered an IC50 of 430 nM. The compound further returned a half-life in the data set “in vitro” of 7 min.

For `Cc1c2c(n3c1CCNCC[C@H](C)Nc1cc-3ccc1C(N)=O)CC(C)(C)CC2=O`, the concentration in solution in data set [1] (solubility) came to 67 µg/mL (≈ 164 µM).

`Cc1c2c(n3c1CCCNC(C)(C)CNc1cc-3ccc1C(N)=O)CC(C)(C)CC2=O` yielded an EC50 in the data set on HCT-116 (hct-116) of 80 nM. Besides, the solubility in data set [1] worked out at 52 µg/mL (≈ 123 µM). The compound also gave an IC50 in data set [2] of 140 nM. The compound further displayed a half-life in the data set “in vitro” of 15 min.

The compound `Cc1c2c(n3c1CCCNCC(C)(C)Nc1cc-3ccc1C(N)=O)CC(C)(C)CC2=O` showed an EC50 in the data set with HCT-116 (Homo sapiens, HCT-116, 96 h) of 620 nM. Also, in data set [1], the solubility was 45 µg/mL (≈ 106 µM). Moreover, inhibition in data set [2] was half-maximal at 830 nM (IC50). This compound came in with a half-life in “in vitro” of over 30 min.

`Cc1c2c(n3c1CC[C@@H](C)N[C@H](C)CNc1cc-3ccc1C(N)=O)CC(C)(C)CC2=O` gave an EC50 with HCT-116 (Homo sapiens, HCT-116, 96 h) of 30 nM. Besides, the solubility in data set [1] was over 100 µg/mL. This compound also displayed an IC50 in data set [2] of 90 nM. In addition, in the data set “in vitro”, the half-life came out at 15 min.

In turn, `Cc1c2c(n3c1CCCN(C)C[C@H](C)Nc1cc-3ccc1C(N)=O)CC(C)(C)CC2=O` showed an EC50 in the data set with HCT-116 (hct-116) of 80 nM. The solubility in data set [1] stood at 31 µg/mL (≈ 73.4 µM). The compound further showed an IC50 in data set [2] of 150 nM. The compound also showed a half-life in “in vitro” of 11 min.

The compound `Cc1c2c(n3c1CCNCC(C)CNc1cc-3ccc1C(N)=O)CC(C)(C)CC2=O` (stereo not drawn) yielded an EC50 with HCT-116 (Homo sapiens, HCT-116, 96 h) of 250 nM. This compound displayed a solubility in data set [1] of 39 µg/mL (≈ 95.5 µM). In data set [2], this compound showed an IC50 of 360 nM. The half-life in “in vitro” was found to be 5 min.

`Cc1c2c(n3c1CCNCCOCCNc1cc-3ccc1C(N)=O)CC(C)(C)CC2=O` came in with an EC50 in the data set with HCT-116 (Homo sapiens, HCT-116, 96 h) of 830 nM. The compound further registered a solubility in data set [1] of 73 µg/mL (≈ 172 µM). The IC50 in data set [2] was found to be 570 nM. This compound showed a half-life in “in vitro” of 28 min.

`Cc1c2c(n3c1CCCNCCNc1cc-3ccc1C(N)=O)CC(C)(C)CC2=O` displayed a concentration for a half-maximal effect (EC50) in the data set with HCT-116 (Homo sapiens, HCT-116, 96 h) of 820 nM. The same compound registered a solubility in data set [1] of 35 µg/mL (≈ 88.7 µM). The compound further displayed an IC50 in data set [2] of 920 nM. The compound further gave a half-life in “in vitro” of over 30 min.

In turn, `Cc1c2c(n3c1CCC(C)NCCNc1cc-3ccc1C(N)=O)CC(C)(C)CC2=O` (stereo not drawn) displayed an EC50 in the data set on HCT-116 (Homo sapiens, HCT-116, 96 h) of 940 nM. In addition, the solubility in data set [1] is 69 µg/mL (≈ 169 µM). Further, the IC50 in data set [2] stood at 1240 nM. This compound showed a half-life in the data set “in vitro” of 26 min.

For the compound `Cc1c2c(n3c1CCCNCC(C)(C)CNc1cc-3ccc1C(N)=O)CC(C)(C)CC2=O`, the EC50 in the data set on HCT-116 (hct-116) is 210 nM. The compound further showed a solubility in data set [1] of 6 µg/mL (≈ 13.7 µM). This compound also registered an IC50 in data set [2] of 290 nM. For the same compound, the half-life in the data set “in vitro” stood at 3 min.

Turning to `Cc1c2c(n3c1CCCNC[C@H](C)Nc1cc-3ccc1C(N)=O)CC(C)(C)CC2=O`, the solubility in data set [1] is over 100 µg/mL.

In turn, `Cc1c2c(n3c1CNCCCCNc1cc-3ccc1C(N)=O)CC(C)(C)CC2=O` gave an EC50 in the data set with HCT-116 (Homo sapiens, HCT-116, 96 h) of over 5000 nM. The compound further registered a solubility in data set [1] of 18 µg/mL (≈ 45.6 µM). This compound gave an IC50 in data set [2] of over 5000 nM. The half-life in the data set “in vitro” amounted to 18 min.

The compound `Cc1c2c(n3c1CNCCC[C@H](C)Nc1cc-3ccc1C(N)=O)CC(C)(C)CC2=O` showed an EC50 in the data set on HCT-116 (Homo sapiens, HCT-116, 96 h) of over 5000 nM. The compound also gave a solubility in data set [1] of 16 µg/mL (≈ 39.2 µM). This compound had an IC50 in data set [2] of over 5000 nM. For the same compound, the half-life in the data set “in vitro” is 7 min.

For `Cc1c2c(n3c1CCNCCCNc1cc-3ccc1C(N)=O)CC(C)(C)CC2=O`, the EC50 with HCT-116 (Homo sapiens, HCT-116, 96 h) is 8140 nM. In data set [2], the midpoint of inhibition, the IC50, lay at 400 nM.

`Cc1c2c(n3c1CCNCC(O)CNc1cc-3ccc1C(N)=O)CC(C)(C)CC2=O` (stereo not drawn) gave an EC50 with HCT-116 (Homo sapiens, HCT-116, 96 h) of 600 nM. This compound also returned a solubility in data set [1] of 70 µg/mL (≈ 171 µM). The compound further had an IC50 in data set [2] of 320 nM. Besides, in the data set “in vitro”, the half-life is 10 min.
